Source: patent US4996227A, “3-(heteroarylalkyene)- and 3-(arylalkylene)-2,4(3H,5H)-heterocyclic diones as cancer chemotherapy drugs” (priority 1989, dated 1991)

Tests used:
Assay type in all cases: cell-based
[1] = tested on: human tumor H5315 BREAST; test: Human Tumor Stem Cell Assay, colony growth after one hour exposure; details: LO: furandione 0.2 mcg/ml; standard drugs 10% of peak plasma concentration; 1 h
Description: (§1) The in vitro Human Tumor Stem Cell Assay procedure described as follows has several advantages for testing the effectiveness of chemotherapy drugs such as the 3-(heteroarylalkylene)-2,4(3H,5H)-furandiones. The first advantage is that fresh tumor cells from a variety of tumor types were used rather than a small number of cell lines which have undergone severe selection pressures as they are passed in vitro. The second advantage is that only the anchorage-independent tumor cells will form colonies in soft agar so that any non-malignant cells present in the sample will not form colonies. Perhaps the most important advantage, however, is the emphasis on cells which have the ability to form colonies. These cells, which are generally called stem cells, usually comprise only a small percentage of all tumor cells. They are thought to be the most important cells for growth and distant spread of a tumor. In particular, these cells have the potential to leave the primary tumor and form new tumors at distant sites (called metastases). It is the effectiveness against these very important stem cells that the Human Tumor Stem Cell Assay measures.
(§2) One of the 3-(heteroarylalkylene)-2,4(3H,5H)-furandione compounds, 3-[(5-methyl-2-thienyl) methylene]-2,4(3H,5H)-furandione was evaluated against a series of 10 human tumors in the in vitro Human Tumor Cell Assay, along with conventional and standard chemotherapy agents.
(§3) In the procedure, a single cell suspension was prepared from tumors excised from patients during therapeutic or diagnostic surgical procedures. The human tumor cells were exposed to known anticancer drugs or to [(5-methyl-2-thienyl)methylene]-2,4 (3H, 5H)-furandione at a low (0.2 mcg/ml) or a high (1.0 mcg/ml) concentration for one hour. […] The suspension was washed with tissue culture medium to remove the drug.
(§4) The suspension was then cultured in a double soft agar suspension. Control cells which had been treated identically, except for exposure to the drugs, were also cultured. After one to two weeks, both the tumor cells and the control cells formed colonies in the soft agar which were enumerated under a microscope. The number of colonies grown from the drug-treated cells was compared to the number of colonies grown from the control cells, and the percentage growth after exposure to the drug was calculated.
(§5) The results are illustrated in Table 1, wherein the various numbers indicate the percentage of growth. For example, a small number like 6 means that the number of colonies is only 6% of the number without addition of the compound. On the other hand, a large number like 120 means that the number of colonies is 20% greater with the compound than without.
(§6) Of the nine tumors for which the higher concentration (1.0 mcg/ml) of the furandione was used, five gave inhibition of colony growth corresponding to borderline sensitive (30-50% growth) and four gave inhibition corresponding to sensitivity (0-30% growth). Clinical drugs are normally tested at 10% of their peak plasma concentration. For the standard chemotherapy drugs shown in Table 1, the low concentration (LO) corresponds to this 10% level, and the high concentration (HI) is at 50% of the peak plasma concentration. Of the same nine tumors, only two would have been rated as sensitive or borderline sensitive to any of the other clinical drugs tested.

[2] = tested on: human tumor H5322 STOMACH; test: as above; details: 1 h
Description: as §1, §2, §3, §4, §5, §6

[3] = tested on: human tumor H5318 OVARY; test: as above; details: 1 h
Description: as §1, §2, §3, §4, §5, §6

[4] = tested on: human tumor H5319 BREAST; test: as above; details: 1 h
Description: as §1, §2, §3, §4, §5, §6

[5] = tested on: human tumor H5331 OVARY; test: as above; details: 1 h
Description: as §1, §2, §3, §4, §5, §6

[6] = tested on: human tumor H5330 THYMUS; test: as above; details: 1 h
Description: as §1, §2, §3, §4, §5, §6

[7] = tested on: human tumor H5325 SARCOMA; test: as above; details: 1 h
Description: as §1, §2, §3, §4, §5, §6

[8] = tested on: human tumor H5349 BREAST; test: as above; details: 1 h
Description: as §1, §2, §3, §4, §5, §6

[9] = tested on: human tumor H5337 COLON; test: as above; details: 1 h
Description: as §1, §2, §3, §4, §5, §6

[10] = tested on: human tumor H5340 **; test: as above; details: 1 h
Description: as §1, §2, §3, §4, §5, §6

[11] = tested on: K562 cells (human chronic granulocytic leukemia); test: K562 human leukemia cell suspension culture, cell concentration; details: 1 ug/ml
Description: In this example, 1 mcg/ml of 3[[5-methyl-2-thienyl]methylene]2, 4 (3H, 5H) furandione was compared to 1 mcg/ml of 3[[3-methyl-2-thienyl]methylene]2, 4 (3H, 5H) furandione.
A conventionally available cell line (K562) derived from human chronic granulocytic leukemia was employed in an in vitro procedure. The leukemia cell line was cultured in a suspension of RPMI 1640 plus 10% fetal calf serum. All initial cell concentrations for the cultures were 0.65 times 10^5 cells/ml. Four separate suspension cultures were employed with the first suspension culture having no additions. The second suspension culture included 100 microliters of the solvent DMSO per 10 ml of culture (control). The third culture contained 1 ug/ml of 3[[5-methyl-2 thienyl]methylene]-2, 4 (3H, 5H) furandione and the fourth culture contained 1 ug/ml of 3[[3-methyl-2-thienyl]methylene]-2, 4 (3H, 5H) furandione. The cell concentration of each of the four cultures was determined. After three days and again after five days.

[12] = HI: furandione 1.0 mcg/ml, standard drugs 50% of peak plasma concentration
[13] = LO: furandione 0.2 mcg/ml, standard drugs 10% of peak plasma concentration

Row | Structure (SMILES) | percentage of growth (colonies vs control) [1] [%] | percentage of growth (colonies vs control) [2, 12] [%] | percentage of growth (colonies vs control) [3, 12] [%] | percentage of growth (colonies vs control) [4, 12] [%] | percentage of growth (colonies vs control) [5, 12] [%] | percentage of growth (colonies vs control) [6, 12] [%] | percentage of growth (colonies vs control) [2, 13] [%] | percentage of growth (colonies vs control) [7, 12] [%] | percentage of growth (colonies vs control) [8, 12] [%] | percentage of growth (colonies vs control) [9, 12] [%] | percentage of growth (colonies vs control) [9, 13] [%] | percentage of growth (colonies vs control) [10, 12] [%] | also measured
1 | CO[C@@]12[C@H](COC(N)=O)C3=C(C(=O)C(C)=C(N)C3=O)N1C[C@@H]1N[C@@H]12 [MTC, MITOMYCIN C] | 59 | 69 | 90 | 72 | 102 | 90 |  |  |  |  |  |  | 
2 | COc1cccc2c1C(=O)c1c(O)c3c(c(O)c1C2=O)C[C@@](O)(C(=O)CO)C[C@@H]3O[C@H]1C[C@H](N)[C@H](O)[C@H](C)O1 [ADR, ADRIAMYCIN] | 75 | 65 | 60 | 100 | 105 | 98 | 55 | 11 | 82 |  |  |  | percentage of growth (colonies vs control) [7, 13]: 22%; percentage of growth (colonies vs control) [3, 13]: 76%
3 | CC[C@]1(O)C[C@@H]2CN(CCc3c([nH]c4ccccc34)[C@@](C(=O)OC)(c3cc4c(cc3OC)N(C)[C@H]3[C@@](O)(C(=O)OC)[C@H](OC(C)=O)[C@]5(CC)C=CCN6CC[C@]43[C@@H]65)C2)C1 [VBL, VINBLASTINE] | 50 | 35 | 60 | 6 | 45 |  | 40 | 8 | 65 | 67 | 60 | 44 | percentage of growth (colonies vs control) [7, 13]: 9%; percentage of growth (colonies vs control) [8, 13]: 70%; percentage of growth (colonies vs control) [10, 13]: 79%; percentage of growth (colonies vs control) [3, 13]: 39%; percentage of growth (colonies vs control) [4, 13]: 5%; percentage of growth (colonies vs control) [5, 13]: 115%
4 | Nc1nc(=S)c2[nH]cnc2[nH]1 [Compound 6TG, 6THOQUANINE] |  | 122 |  |  |  |  |  | 69 |  |  |  | 50 | percentage of growth (colonies vs control) [10, 13]: 75%
5 | O=c1[nH]cc(F)c(=O)[nH]1 [Compound 5FU, 5FLUORACIL] |  | 79 |  | 111 | 51 |  |  | 83 | 117 |  | 62 |  | percentage of growth (colonies vs control) [5, 13]: 94%
6 | N.N.[Cl][Pt][Cl] [CPDD, CISPLATIN] |  | 56 | 38 |  | 69 | 75 | 63 |  | 54 | 41 | 98 | 125 | percentage of growth (colonies vs control) [7, 13]: 62%; percentage of growth (colonies vs control) [8, 13]: 48%; percentage of growth (colonies vs control) [3, 13]: 109%; percentage of growth (colonies vs control) [5, 13]: 87%
7 | O=NN(CCCl)C(=O)NCCCl [BCNU, BISCHLORETHYLNITROSOUREA] | 108 |  | 93 | 122 | 111 | 74 |  |  |  | 88 |  |  | 
8 | Cc1ccsc1C=C1C(=O)COC1=O [3 methyl, 3[[3-methyl-2-thienyl]methylene]-2, 4 (3H, 5H) furandione] |  |  |  |  |  |  |  |  |  |  |  |  | effect on leukemia culture [11]: also shows a decrease in the leukemia cell concentration culture, but the decrease is not as great as with the other compound; Cell Conc. ([11]; 3 Days): 50000 mL⁻¹; Cell Conc. ([11]; 5 Days): 150000 mL⁻¹; cell concentration vs 5-methyl analog ([11]; after five days): slightly higher cell concentration than the 5-methyl analog
9 | CCOC(=O)NC1=C(N2CC2)C(=O)C(NC(=O)OCC)=C(N2CC2)C1=O [AZO, AZIRIDIMYLBENYOQUINONE] |  |  |  |  |  |  |  |  |  |  |  | 107 | 
10 | N[C@@H](Cc1ccc(N(CCCl)CCCl)cc1)C(=O)O [MPL, MELPHALAN] |  | 61 |  | 85 | 76 | 92 | 54 | 12 | 65 | 58 | 76 |  | percentage of growth (colonies vs control) [8, 13]: 63%; percentage of growth (colonies vs control) [6, 13]: 31%
11 | CC[C@]1(O)C[C@H]2CN(CCc3c([nH]c4ccccc34)[C@@](C(=O)OC)(c3cc4c(cc3OC)N(C=O)[C@H]3[C@@](O)(C(=O)OC)[C@H](OC(C)=O)[C@]5(CC)C=CCN6CC[C@]43[C@@H]65)C2)C1 [VCR, VINCRISTINE] |  |  |  |  |  |  |  |  |  |  |  | 113 | 
